Article PMC6514812, “[^18F]Fluoroethyltriazolyl Monocyclam Derivatives as Imaging Probes for the Chemokine Receptor CXCR4” (Molecules, 2019)
Where two headings read alike, the source gives them in different places.

Tests used:
[1] = system: PC3-CXCR4 xenograft tumors; parameters: method as in PMID 29544122; details: cited from earlier work
PC3-CXCR4 cells = assay: Cell-associated activity in PC3-CXCR4 cells; type: cell-based, human; details: 1 h
Method: Maximum cell-associated activity was calculated by subtracting the cell uptake of the radioactive ligand at the highest non-radioactive ligand concentration of 10 µM (which we considered to be non-specific uptake/binding) from the cell uptake at the lowest non-radioactive ligand concentration of 10^−5 µM.

CXCR4 [2] = target: T1, CXCR4 (Homo sapiens, UniProt P61073); assay: Saturation binding assay in PC3-CXCR4 cells
T1 construct: expressed in transfected cells; host or cells: PC3 (human prostate cancer) cells stably transduced with CXCR4
T1 sequence (P61073 whole entry): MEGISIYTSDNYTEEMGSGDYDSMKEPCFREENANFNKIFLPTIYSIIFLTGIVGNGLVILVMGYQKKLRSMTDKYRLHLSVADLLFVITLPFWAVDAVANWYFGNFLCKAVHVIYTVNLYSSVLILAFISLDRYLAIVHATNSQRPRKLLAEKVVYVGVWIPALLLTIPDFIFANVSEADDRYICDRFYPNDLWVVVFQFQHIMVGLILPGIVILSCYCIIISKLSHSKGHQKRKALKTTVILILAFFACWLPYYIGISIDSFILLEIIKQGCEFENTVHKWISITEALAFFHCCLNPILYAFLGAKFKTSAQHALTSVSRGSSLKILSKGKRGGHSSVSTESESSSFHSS
Outline: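 PC3 cells expressing CXCR4 incubated with ~5 nM radioligand plus matching unlabelled ligand at eight final concentrations, 0.001–10,000 nM, in triplicate, then washed and counted. Kd from a one-site nonlinear fit, y = (Bmax · x)/(Kd + x), after non-specific binding subtraction; reported ± SD.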

[3] = system: PC3-CXCR4 xenograft tumors; assay: µPET/CT titration of tumor uptake by co-injection of AMD-3100 (block50); type: in vivo, BALB/c mice; details: co-injection of AMD-3100, µPET/CT 1 h p.i.; listed as [^18F]RPS-544
Method: All animal studies were approved by the Institutional Animal Care and Use Committee of Weill Cornell Medicine (Protocol Number: 2015-0066) and were undertaken in accordance with the guidelines set forth by the USPHS Policy on Humane Care and Use of Laboratory Animals. Animals were housed under standard conditions in approved facilities with 12 h light/dark cycles. Food and water was provided ad libitum throughout the course of the studies. Hairless 6-to-8-week old male BALB/c inbred athymic nude mice (Jackson Laboratory, Bar Harbor, ME, USA) were inoculated bilaterally with 0.2 mL of a 1:1 mixture of 10^7 PC3-CXCR4 cells in PBS and Matrigel (Corning, Tewksbury, MA, USA) subcutaneously in the left shoulder and 0.2 mL of a 1:1 mixture of 10^7 PC3-WT cells in PBS and Matrigel subcutaneously in the right shoulder. […]
For the imaging studies, the tumor-bearing mice (n = 2/compound) were injected intravenously with 100 μL of a 9% v/v EtOH/saline solution containing approximately 3.7 MBq of the radioligand. […] Tumor uptake was quantified by the following procedure: CT-aided regions of interest were drawn, and tissue concentration was determined by comparison with a 3 %ID/cm^3 standard included in the field of view. Uptake was expressed as percent injected dose per centimeter cubed (%ID/cm^3) ± standard deviation.

CXCR4 [4] = target: T1, CXCR4; assay: Competition binding assay vs [^68Ga]Pentixafor in PC3-CXCR4 cells
Outline: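 PC3-CXCR4 cells were incubated 60 min at 37 °C with tracer ([^68Ga]Pentixafor at 100 nM or [^18F]RPS-544 at ~5 pM) plus unlabelled ligand at eight concentrations (0.001–10,000 nM). Cell-bound activity was gamma-counted after washing. Non-specific binding was subtracted and IC50 was fitted to a sigmoidal Hill model assuming simple competition.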

In the case of Fc1cccc(CNCc2ccc(CN3CCCNCCNCCCNCC3)cc2)n1 [RPS-544], the “PC3-CXCR4 Tumor-to-Tissue Ratio Blood” value ([1]; 1 h p.i.) is listed as 2.5 ± 0.4, the “PC3-CXCR4 Tumor-to-Tissue Ratio Bone” value ([1]; 1 h p.i.) is listed as 4.2 ± 1.2 and the “PC3-CXCR4 Tumor-to-Tissue Ratio Kidneys” value ([1]; 1 h p.i.) is listed as 0.1 ± 0.1. The “PC3-CXCR4 Tumor-to-Tissue Ratio Liver” value ([1]; 1 h p.i.) was 0.1 ± 0.1, the “PC3-CXCR4 Tumor-to-Tissue Ratio Lungs” value ([1]; 1 h p.i.) was 2.0 ± 1.2 and the “PC3-CXCR4 Tumor-to-Tissue Ratio Muscle” value ([1]; 1 h p.i.) was 11.1 ± 0.4. For the same compound, the “PC3-CXCR4 Tumor-to-Tissue Ratio PC3-WT” value ([1]; 1 h p.i.) was 3.3 ± 1.3, the “PC3-CXCR4 Tumor Uptake” value ([1]; 1 h p.i., previously published data) was 3.4 ± 1.2 %ID/g and the “PC3-CXCR4 Tumor-to-Tissue Ratio Blood” value ([1]; 2 h p.i.) was 4.8 ± 0.1. For the same compound, the “PC3-CXCR4 Tumor-to-Tissue Ratio Bone” value ([1]; 2 h p.i.) was 2.9 ± 0.3, the “PC3-CXCR4 Tumor-to-Tissue Ratio Kidneys” value ([1]; 2 h p.i.) was 0.1 ± 0.1 and the “PC3-CXCR4 Tumor-to-Tissue Ratio Liver” value ([1]; 2 h p.i.) was 0.1 ± 0.1. For the same compound, the “PC3-CXCR4 Tumor-to-Tissue Ratio Lungs” value ([1]; 2 h p.i.) was 1.7 ± 0.3, the “PC3-CXCR4 Tumor-to-Tissue Ratio Muscle” value ([1]; 2 h p.i.) was 6.7 ± 0.2 and the “PC3-CXCR4 Tumor-to-Tissue Ratio PC3-WT” value ([1]; 2 h p.i.) was 2.6 ± 0.3. For the same compound, the “Cell-Associated Activity” value (PC3-CXCR4 cells) was 8.2 ± 0.3 %IA, the Kd (CXCR4 [2]; saturation binding, PC3-CXCR4 cells) was 5.1 ± 1 nM and the “Hill Slope, Saturation Binding Experiment” value (CXCR4 [2]; value ± SD) was 1.06 ± 0.11. The “Block50: dose of AMD-3100 reducing uptake in PC3-CXCR4 tumors by 50%” value [3] was 0.17 ± 0.06 mg/kg, the IC50 (CXCR4 [4]; vs 100 nM [^68Ga]Pentixafor, PC3-CXCR4 cells, 60 min 37 °C) was 6.3 ± 0.8 nM and the “Hill Slope, Competitive Binding Experiment” value (CXCR4 [4]; vs [^68Ga]Pentixafor, value ± SD) was 1.13 ± 0.47.
